31 molecules from US20140023611A1 (priority 2010, published 2014) can be followed below.

This assay has as its target T1, rat NaP2b (SLC34A2) (Rattus norvegicus, UniProt Q9JJ09).
T1 construct: host or cells: HEK293
T1 sequence (Q9JJ09 1-695): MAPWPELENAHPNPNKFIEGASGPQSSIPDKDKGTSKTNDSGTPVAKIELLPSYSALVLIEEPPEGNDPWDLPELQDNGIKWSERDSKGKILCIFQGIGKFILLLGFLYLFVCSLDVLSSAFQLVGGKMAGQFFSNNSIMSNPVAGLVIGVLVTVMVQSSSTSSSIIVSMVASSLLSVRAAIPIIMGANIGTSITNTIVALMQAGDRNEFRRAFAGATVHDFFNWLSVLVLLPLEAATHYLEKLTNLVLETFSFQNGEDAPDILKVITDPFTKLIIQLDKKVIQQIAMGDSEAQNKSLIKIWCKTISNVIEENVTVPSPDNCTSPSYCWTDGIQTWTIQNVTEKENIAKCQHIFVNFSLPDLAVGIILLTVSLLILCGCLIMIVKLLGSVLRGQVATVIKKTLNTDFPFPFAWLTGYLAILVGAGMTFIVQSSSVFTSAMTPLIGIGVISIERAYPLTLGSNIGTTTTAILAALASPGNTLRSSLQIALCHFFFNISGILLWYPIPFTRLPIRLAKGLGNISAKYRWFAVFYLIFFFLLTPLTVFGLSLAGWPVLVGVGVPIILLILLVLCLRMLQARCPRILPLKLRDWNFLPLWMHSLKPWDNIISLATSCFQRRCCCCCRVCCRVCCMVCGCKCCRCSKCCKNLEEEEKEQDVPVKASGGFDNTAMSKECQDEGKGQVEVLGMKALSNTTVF
Nature of the assay: Inhibition of NaP2b-mediated Pi (33P) uptake in transfected HEK293 cells, rat NaP2b. Format: cell-based. The note with it: 33P Pi uptake, 0.1 mM phosphate, value given as pIC50 range. The procedure: HEK293 cells were obtained from the American Type Culture collection and propagated per their instructions. […] The sequence of the human protein was mutated to insert a threonine after residue 37, and to introduce a N39D mutation.
Cells were seeded into 96-well plates at 25,000 cells/well and cultured overnight. Lipofectamine 2000 (Invitrogen) was used to introduce the NaP2b cDNA, and the cells were allowed to approach confluence during a second overnight incubation. […] Each compound was tested at twelve concentrations ranging from 0.1 nM to 30 uM. Assays were run in duplicate.
Cells were lysed by addition of 20 μL 0.1% Tween 80 followed by 100 μL scintillation fluid, and counted using a TopCount (Perkin Elmer).
pIC50 (the negative log of the IC50) values of the test compounds were calculated using GraphPad Prism.
For `CC(=O)N1CCCN(C(=O)c2cccc(C(=O)Nc3ccc(N4CCCCC4)cc3-c3cc(C(=O)NCc4cccc(C(F)(F)F)c4)ccn3)c2)CC1` [Example 4.13, 2-(2-(3-(4-Acetyl-1,4-diazepane-1-carbonyl)benzamido)-5-(piperidin-1-yl)phenyl)-N-(3-(trifluoromethyl)benzyl)isonicotinamide], the 50% inhibitory concentration (IC50) – broadly, the concentration that inhibits the measured activity by half – was 1 to 7.94 µM.

As for `COCCNC(=O)[C@H]1CCCN(C(=O)c2cccc(C(=O)Nc3ccc(N4CCCCC4)cc3-c3cc(C(=O)NCc4cccc(C(F)(F)F)c4)ccn3)c2)C1` [Example 4.14, (S)-2-(2-(3-(3-((2-Methoxyethyl)carbamoyl)piperidine-1-carbonyl)benzamido)-5-(piperidin-1-yl)phenyl)-N-(3-(trifluoromethyl)benzyl)isonicotinamide], the IC50 is 1 to 7.94 µM.

In the case of `COCCNC(=O)[C@@H]1CCCN(C(=O)c2cccc(C(=O)Nc3ccc(N4CCCCC4)cc3-c3cc(C(=O)NCc4cccc(C(F)(F)F)c4)ccn3)c2)C1` [Example 4.15, (R)-2-(2-(3-(3-((2-Methoxyethyl)carbamoyl)piperidine-1-carbonyl)benzamido)-5-(piperidin-1-yl)phenyl)-N-(3-(trifluoromethyl)benzyl)isonicotinamide], the IC50 is 1 to 7.94 µM.

`O=C(CCSCc1cccc(C(=O)Nc2ccc(N3CCCCC3)cc2-c2cc(C(=O)NCc3cccc(C(F)(F)F)c3)ccn2)c1)NCCN1CCOCC1` [Example 4.16, 2-(2-(3-(((3-((2-Morpholinoethyl)amino)-3-oxopropyl)thio)methyl)benzamido)-5-(piperidin-1-yl)phenyl)-N-(3-(trifluoromethyl)benzyl)isonicotinamide]: the 50% inhibitory concentration (IC50) was 10 to 31.6 µM.

`COCCNC(=O)CCSCc1cccc(C(=O)Nc2ccc(N3CCCCC3)cc2-c2cc(C(=O)NCc3cccc(C(F)(F)F)c3)ccn2)c1` [Example 4.17, 2-(2-(3-(((3-((2-Methoxyethyl)amino)-3-oxopropyl)thio)methyl)benzamido)-5-(piperidin-1-yl)phenyl)-N-(3-(trifluoromethyl)benzyl)isonicotinamide] had a concentration for half-maximal inhibition (IC50) of 10 to 31.6 µM.

The molecule `O=C(O)CNC(=O)CCSCc1cccc(C(=O)Nc2ccc(N3CCCCC3)cc2-c2cc(C(=O)NCc3cccc(C(F)(F)F)c3)ccn2)c1` [Example 4.18, 2-(3-((3-((4-(Piperidin-1-yl)-2-(4-((3-(trifluoromethyl)benzyl)carbamoyl)pyridin-2-yl)phenyl)carbamoyl)benzyl)thio)propanamido)acetic acid] gave an IC50 of 10 to 31.6 µM.

`COCCN(C)CCN(C)C(=O)c1cccc(C(=O)Nc2ccc(N3CCCCC3)cc2-c2cc(C(=O)NCc3cccc(C(F)(F)F)c3)ccn2)c1` [Example 4.20.2, N1-(2-((2-Methoxyethyl)(methyl)amino)ethyl)-N1-methyl-N3-(4-(piperidin-1-yl)-2-(4-((3-(trifluoromethyl)benzyl)carbamoyl)pyridin-2-yl)phenyl)isophthalamide] showed an IC50 of 1 to 7.94 µM.

In turn, `CN(CCO)CCN(C)C(=O)c1cccc(C(=O)Nc2ccc(N3CCCCC3)cc2-c2cc(C(=O)NCc3cccc(C(F)(F)F)c3)ccn2)c1` [Example 4.21, N1-(2-((2-Hydroxyethyl)(methyl)amino)ethyl)-N1-methyl-N3-(4-(piperidin-1-yl)-2-(4-((3-(trifluoromethyl)benzyl)carbamoyl)pyridin-2-yl)phenyl)isophthalamide] gave an IC50 of 1 to 7.94 µM.

Take `CN(CCNC(=O)OC(C)(C)C)C(=O)c1cccc(C(=O)Nc2ccc(N3CCCCC3)cc2-c2cc(C(=O)NCc3cccc(C(F)(F)F)c3)ccn2)c1` [Example 4.22]: the IC50 is 10 to 31.6 µM.

Consider `O=C(NCc1cccc(C(F)(F)F)c1)c1ccnc(-c2cc(N3CCCCC3)ccc2NC(=O)c2cccc(C(=O)N3CCC(N4CCOCC4)CC3)c2)c1` [Example 4.23], for which the IC50 is 10 to 31.6 µM.

On to `CN(Cc1ncc[nH]1)C(=O)c1cccc(C(=O)Nc2ccc(N3CCCCC3)cc2-c2cc(C(=O)NCc3cccc(C(F)(F)F)c3)ccn2)c1` [Example 4.24], for which the IC50 is 1 to 7.94 µM.

Regarding `CN(Cc1nccn1C)C(=O)c1cccc(C(=O)Nc2ccc(N3CCCCC3)cc2-c2cc(C(=O)NCc3cccc(C(F)(F)F)c3)ccn2)c1` [Example 4.25], the half-maximal inhibitory concentration (IC50) is 1 to 7.94 µM.

On to `CN(Cc1cccnc1)C(=O)c1cccc(C(=O)Nc2ccc(N3CCCCC3)cc2-c2cc(C(=O)NCc3cccc(C(F)(F)F)c3)ccn2)c1` [Example 4.27], for which the IC50 is 1 to 7.94 µM.

`CN(CCn1ccnc1)C(=O)c1cccc(C(=O)Nc2ccc(N3CCCCC3)cc2-c2cc(C(=O)NCc3cccc(C(F)(F)F)c3)ccn2)c1` [Example 4.28] had an IC50 of 1 to 7.94 µM.

Molecule `O=C(NCc1cccc(C(F)(F)F)c1)c1ccnc(-c2cc(N3CCCCC3)ccc2NC(=O)c2cccc(C(=O)N3CCC(CCO)CC3)c2)c1` [Example 4.29] gave a half-inhibitory concentration (IC50) of 1 to 7.94 µM.

`O=C(NCc1cccc(C(F)(F)F)c1)c1ccnc(-c2cc(N3CCCCC3)ccc2NC(=O)c2cccc(C(=O)N3CCC(CO)CC3)c2)c1` [Example 4.30] showed an IC50 of 1 to 7.94 µM.

As for `O=C(O)CC1CCN(C(=O)c2cccc(C(=O)Nc3ccc(N4CCCCC4)cc3-c3cc(C(=O)NCc4cccc(C(F)(F)F)c4)ccn3)c2)CC1` [Example 4.31, 2-(1-(3-(4-(Piperidin-1-yl)-2-(4-(3-(trifluoromethyl)benzylcarbamoyl)pyridin-2-yl)phenylcarbamoyl)benzoyl)piperidin-4-yl)acetic acid], the IC50 was 10 to 31.6 µM.

Molecule `CN(Cc1cccc(C(=O)O)c1)C(=O)c1cccc(C(=O)Nc2ccc(N3CCCCC3)cc2-c2cc(C(=O)NCc3cccc(C(F)(F)F)c3)ccn2)c1` [Example 4.32, 3-((N-Methyl-3-(4-(piperidin-1-yl)-2-(4-(3-(trifluoromethyl)benzylcarbamoyl)pyridin-2-yl)phenylcarbamoyl)benzamido)methyl)benzoic acid] showed an IC50 of 1 to 7.94 µM.

Regarding `O=C(O)CCSCc1cccc(C(=O)Nc2ccc(N3CCCCC3)cc2-c2cc(C(=O)CCc3ccccc3)ccn2)c1` [Example 5.1, 3-((3-((2-(4-(3-Phenylpropanoyl)pyridin-2-yl)-4-(piperidin-1-yl)phenyl)carbamoyl)benzyl)thio)propanoic acid], the IC50 is 1 to 7.94 µM.

Molecule `O=C(O)CCSCc1cccc(C(=O)Nc2ccc(N3CCCCC3)cc2-c2cc(C(=O)c3cccc(C(F)(F)F)c3)ccn2)c1` [Example 5.2, 3-((3-((4-(piperidin-1-yl)-2-(4-(3-(trifluoromethyl)benzoyl)pyridin-2-yl)phenyl)carbamoyl)benzyl)thio)propanoic acid] had an IC50 of 10 to 31.6 µM.

Consider `O=C(O)CCSCc1cccc(C(=O)Nc2ccc(N3CCCCC3)cc2-c2cc(C(O)c3cccc(C(F)(F)F)c3)ccn2)c1` (stereo not shown) [Example 6.2, 3-((3-((2-(4-(Hydroxy(3-(trifluoromethyl)phenyl)methyl)pyridin-2-yl)-4-(piperidin-1-yl)phenyl)carbamoyl)benzyl)thio)propanoic acid], for which the concentration for half-maximal inhibition (IC50) was 10 to 31.6 µM.

In the case of `O=C(O)CCSCc1cccc(C(=O)Nc2ccc(N3CCCCC3)cc2-c2cc(CNCc3cccc(C(F)(F)F)c3)ccn2)c1` [Example 7], the IC50 was 10 to 31.6 µM.

As to `O=C(NCc1cccc(C(F)(F)F)c1)c1ccnc(-c2cc(N3CCCCC3)ccc2NC(=O)c2cccc(CSCCO)c2)c1` [Example 8.2], the IC50 was 1 to 7.94 µM.

Regarding `O=C(NCc1cccc(C(F)(F)F)c1)c1ccnc(-c2cc(N3CCCCC3)ccc2NC(=O)c2cccc(CSCCCCO)c2)c1` [Example 8.4], the IC50 is 1 to 7.94 µM.

As to `O=C(O)CCCSCc1cccc(C(=O)Nc2ccc(N3CCCCC3)cc2-c2cc(C(=O)NCc3cccc(C(F)(F)F)c3)ccn2)c1` [Example 8.5], the IC50 is 1 to 7.94 µM.

`O=C(O)CCOCCOCCOCCOCCSCc1cccc(C(=O)Nc2ccc(N3CCCCC3)cc2-c2cc(C(=O)NCc3cccc(C(F)(F)F)c3)ccn2)c1` [Example 8.7] had a 50% inhibitory concentration (IC50) of 1 to 7.94 µM.

Molecule `O=C(O)CCc1ccc(SCc2cccc(C(=O)Nc3ccc(N4CCCCC4)cc3-c3cc(C(=O)NCc4cccc(C(F)(F)F)c4)ccn3)c2)cc1` [Example 8.8] showed an IC50 of less than 1 µM.

For `O=C(O)CCCc1ccc(SCc2cccc(C(=O)Nc3ccc(N4CCCCC4)cc3-c3cc(C(=O)NCc4cccc(C(F)(F)F)c4)ccn3)c2)cc1` [Example 8.9], the IC50 was 1 to 7.94 µM.

For the molecule `CC(C)(C)OC(=O)NC(CSCc1cccc(C(=O)Nc2ccc(N3CCCCC3)cc2-c2cc(C(=O)NCc3cccc(C(F)(F)F)c3)ccn2)c1)C(=O)O` (stereo not shown) [Example 8.10], the IC50 is 10 to 31.6 µM.

In turn, `CC(=O)NC(C(=O)O)C(C)(C)SCc1cccc(C(=O)Nc2ccc(N3CCCCC3)cc2-c2cc(C(=O)NCc3cccc(C(F)(F)F)c3)ccn2)c1` (stereo not shown) [Example 8.11] showed an IC50 of 10 to 31.6 µM.

Turning to `CC(C)C(=O)NC(CSCc1cccc(C(=O)Nc2ccc(N3CCCCC3)cc2-c2cc(C(=O)NCc3cccc(C(F)(F)F)c3)ccn2)c1)C(=O)O` (stereo not shown) [Example 8.12], the IC50 was 10 to 31.6 µM.
